Legend:
[1] = target: MAP/microtubule affinity-regulating kinase 3 (Homo sapiens) (UniProt P27448); assay: MARK3 Invitrogen selectivity data (BI); details: Compound concentration 3.0 uM
[2] = target: Glutamate NMDA receptor (Rattus norvegicus) (UniProt P35439+Q00959+Q00960+Q00961+Q62645+Q8VHN2+Q9R1M7); assay: NMDAAGSI/RA Eurofins-Panlabs selectivity data (BI); assay type: protein-complex assay; details: filed as agonist, Compound concentration 10.0 uM
[3] = target: Serine/threonine-protein kinase PAK 5 (Homo sapiens) (UniProt Q9P286); assay: PAK7 Invitrogen selectivity data (BI); details: Compound concentration 3.0 uM
[4] = target: 5-hydroxytryptamine receptor 1B (Rattus norvegicus) (UniProt P28564); assay: 5HT1B/R Cerep selectivity data (BI); details: Compound concentration 20.0 uM
[5] = target: T1, Ephrin type-A receptor 1 (Homo sapiens) (UniProt P21709); assay: EPHA1 Invitrogen selectivity data (BI); details: Compound concentration 3.0 uM
T1 sequence (whole entry): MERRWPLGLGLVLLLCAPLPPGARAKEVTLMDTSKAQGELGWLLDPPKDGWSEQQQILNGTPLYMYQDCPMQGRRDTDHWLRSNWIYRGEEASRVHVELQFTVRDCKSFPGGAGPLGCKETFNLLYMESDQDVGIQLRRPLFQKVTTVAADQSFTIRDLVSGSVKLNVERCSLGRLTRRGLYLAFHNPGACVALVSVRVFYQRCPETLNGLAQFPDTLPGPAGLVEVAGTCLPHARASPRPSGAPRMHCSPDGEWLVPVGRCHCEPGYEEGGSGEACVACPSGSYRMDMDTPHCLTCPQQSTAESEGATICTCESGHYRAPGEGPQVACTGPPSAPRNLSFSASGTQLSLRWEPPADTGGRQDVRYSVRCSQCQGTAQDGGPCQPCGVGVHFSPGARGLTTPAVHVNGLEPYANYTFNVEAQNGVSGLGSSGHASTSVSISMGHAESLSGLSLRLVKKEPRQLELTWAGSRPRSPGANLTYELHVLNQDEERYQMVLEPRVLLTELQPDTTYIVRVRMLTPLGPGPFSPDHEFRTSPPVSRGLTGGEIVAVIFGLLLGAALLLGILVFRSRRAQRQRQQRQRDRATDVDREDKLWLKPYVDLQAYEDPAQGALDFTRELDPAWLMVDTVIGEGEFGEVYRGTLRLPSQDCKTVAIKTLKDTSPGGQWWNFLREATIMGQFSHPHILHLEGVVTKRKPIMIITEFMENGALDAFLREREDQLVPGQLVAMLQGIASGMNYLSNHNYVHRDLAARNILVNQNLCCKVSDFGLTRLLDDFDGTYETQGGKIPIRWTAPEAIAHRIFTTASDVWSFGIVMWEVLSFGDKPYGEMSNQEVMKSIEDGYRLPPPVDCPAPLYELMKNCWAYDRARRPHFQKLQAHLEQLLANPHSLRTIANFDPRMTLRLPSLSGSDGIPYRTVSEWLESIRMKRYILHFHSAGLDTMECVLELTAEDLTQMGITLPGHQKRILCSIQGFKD

[6] = target: Neuropeptide Y receptor type 1 (Homo sapiens) (UniProt P25929); assay: Y1/HUM Cerep selectivity data (BI); details: filed as antagonist, Compound concentration 20.0 uM
[7] = target: Sphingosine kinase 2 (Homo sapiens) (UniProt Q9NRA0); assay: SPHK2 Invitrogen selectivity data (BI); details: Compound concentration 3.0 uM
[8] = target: Tyrosine-protein kinase Fyn (Homo sapiens) (UniProt P06241); assay: FYN Invitrogen selectivity data (BI); details: Compound concentration 3.0 uM
[9] = target: T2, Muscarinic acetylcholine receptor M1 (Homo sapiens) (UniProt P11229); assay: M1/H Cerep selectivity data (BI); details: Compound concentration 20.0 uM
T2 sequence (whole entry): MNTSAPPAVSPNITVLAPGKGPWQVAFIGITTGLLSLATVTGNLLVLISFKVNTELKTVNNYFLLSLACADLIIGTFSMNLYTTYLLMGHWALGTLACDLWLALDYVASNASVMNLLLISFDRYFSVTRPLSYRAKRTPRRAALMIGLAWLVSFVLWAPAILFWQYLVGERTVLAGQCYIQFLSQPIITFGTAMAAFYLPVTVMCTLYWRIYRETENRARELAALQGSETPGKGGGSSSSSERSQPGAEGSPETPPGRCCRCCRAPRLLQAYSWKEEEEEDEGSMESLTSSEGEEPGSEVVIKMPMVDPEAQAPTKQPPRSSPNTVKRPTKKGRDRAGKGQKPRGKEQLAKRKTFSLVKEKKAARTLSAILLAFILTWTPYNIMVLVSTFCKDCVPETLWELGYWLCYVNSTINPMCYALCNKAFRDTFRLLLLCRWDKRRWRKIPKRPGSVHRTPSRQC

[10] = test system: Epidermal growth factor receptor (Homo sapiens), P00533 [L858R]; assay: EGFR L858R Invitrogen selectivity data (BI); details: Compound concentration 3.0 uM
[11] = target: Phosphatidylinositol 4,5-bisphosphate 3-kinase catalytic subunit gamma isoform (Homo sapiens) (UniProt P48736); assay: PIK3CG Invitrogen selectivity data (BI); details: Compound concentration 3.0 uM
[12] = target: T3, Aurora kinase C (Homo sapiens) (UniProt Q9UQB9); assay: AURKC Invitrogen selectivity data (BI); details: Compound concentration 3.0 uM
T3 sequence (whole entry): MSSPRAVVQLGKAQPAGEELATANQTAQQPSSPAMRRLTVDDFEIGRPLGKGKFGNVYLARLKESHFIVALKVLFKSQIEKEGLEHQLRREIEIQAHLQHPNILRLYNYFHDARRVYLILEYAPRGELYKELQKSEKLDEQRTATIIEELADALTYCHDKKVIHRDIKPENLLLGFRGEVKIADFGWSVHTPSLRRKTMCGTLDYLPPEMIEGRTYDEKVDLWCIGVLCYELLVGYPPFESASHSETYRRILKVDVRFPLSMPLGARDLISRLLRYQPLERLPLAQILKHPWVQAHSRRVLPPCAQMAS

[13] = target: Casein kinase I isoform gamma-3 (Homo sapiens) (UniProt Q9Y6M4); assay: CSNK1G3 Invitrogen selectivity data (BI); details: Compound concentration 3.0 uM

Measured: residual activity

Sequence of Serine/threonine-protein kinase PAK 5 (Homo sapiens) (Q9P286 whole entry, looked up): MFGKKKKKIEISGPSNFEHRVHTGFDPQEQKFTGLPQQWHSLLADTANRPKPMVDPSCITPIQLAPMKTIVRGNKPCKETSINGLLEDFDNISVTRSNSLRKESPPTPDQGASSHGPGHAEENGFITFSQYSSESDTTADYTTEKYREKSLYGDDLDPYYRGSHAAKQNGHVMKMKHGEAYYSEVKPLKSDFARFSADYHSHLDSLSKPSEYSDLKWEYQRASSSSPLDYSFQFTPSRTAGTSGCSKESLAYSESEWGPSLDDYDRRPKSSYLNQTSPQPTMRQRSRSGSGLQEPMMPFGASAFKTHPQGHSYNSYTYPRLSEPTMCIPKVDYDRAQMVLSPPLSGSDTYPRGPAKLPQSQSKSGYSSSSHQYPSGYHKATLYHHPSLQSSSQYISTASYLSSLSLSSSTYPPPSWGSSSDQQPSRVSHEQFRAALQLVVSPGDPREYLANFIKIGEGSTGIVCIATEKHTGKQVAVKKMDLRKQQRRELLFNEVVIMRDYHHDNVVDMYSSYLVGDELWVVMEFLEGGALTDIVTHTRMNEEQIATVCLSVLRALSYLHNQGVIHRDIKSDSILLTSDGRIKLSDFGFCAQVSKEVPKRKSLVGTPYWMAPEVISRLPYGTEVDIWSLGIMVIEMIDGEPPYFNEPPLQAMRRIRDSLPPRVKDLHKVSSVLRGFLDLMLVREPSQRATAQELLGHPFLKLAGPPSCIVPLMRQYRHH
Sequence of MAP/microtubule affinity-regulating kinase 3 (Homo sapiens) (P27448 whole entry, looked up): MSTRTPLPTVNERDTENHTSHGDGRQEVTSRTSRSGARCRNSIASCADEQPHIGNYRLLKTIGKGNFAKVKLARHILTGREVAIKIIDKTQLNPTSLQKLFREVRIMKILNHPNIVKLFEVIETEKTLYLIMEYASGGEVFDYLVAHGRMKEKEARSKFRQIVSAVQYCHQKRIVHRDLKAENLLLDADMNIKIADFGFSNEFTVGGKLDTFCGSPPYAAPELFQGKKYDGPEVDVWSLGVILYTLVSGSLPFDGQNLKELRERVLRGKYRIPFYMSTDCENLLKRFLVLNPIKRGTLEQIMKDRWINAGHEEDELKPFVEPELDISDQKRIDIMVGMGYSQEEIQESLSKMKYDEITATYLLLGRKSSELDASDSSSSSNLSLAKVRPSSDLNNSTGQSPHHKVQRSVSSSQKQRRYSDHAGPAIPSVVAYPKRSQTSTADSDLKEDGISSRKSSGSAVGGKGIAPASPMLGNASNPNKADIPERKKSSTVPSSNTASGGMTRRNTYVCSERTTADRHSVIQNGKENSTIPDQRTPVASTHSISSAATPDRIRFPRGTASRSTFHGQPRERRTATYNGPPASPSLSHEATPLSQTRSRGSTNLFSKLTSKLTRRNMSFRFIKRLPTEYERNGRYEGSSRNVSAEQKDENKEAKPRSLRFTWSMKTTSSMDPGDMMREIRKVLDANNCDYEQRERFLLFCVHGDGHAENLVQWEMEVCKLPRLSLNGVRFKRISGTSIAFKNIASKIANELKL
Sequence of Casein kinase I isoform gamma-3 (Homo sapiens) (Q9Y6M4 whole entry, looked up, canonical isoform): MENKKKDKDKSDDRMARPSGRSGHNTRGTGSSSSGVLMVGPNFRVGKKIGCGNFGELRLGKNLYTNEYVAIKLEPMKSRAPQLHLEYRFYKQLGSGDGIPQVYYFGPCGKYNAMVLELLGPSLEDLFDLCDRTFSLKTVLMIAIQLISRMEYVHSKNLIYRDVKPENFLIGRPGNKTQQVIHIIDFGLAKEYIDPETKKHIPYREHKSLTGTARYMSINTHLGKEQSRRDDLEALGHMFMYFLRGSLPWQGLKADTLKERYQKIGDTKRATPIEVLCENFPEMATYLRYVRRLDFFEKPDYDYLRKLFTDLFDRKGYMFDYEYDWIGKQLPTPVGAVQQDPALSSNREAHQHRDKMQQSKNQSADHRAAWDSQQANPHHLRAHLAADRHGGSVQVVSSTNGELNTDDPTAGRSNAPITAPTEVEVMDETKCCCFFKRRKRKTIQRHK
Sequence of Tyrosine-protein kinase Fyn (Homo sapiens) (P06241 2-537 limits assumed): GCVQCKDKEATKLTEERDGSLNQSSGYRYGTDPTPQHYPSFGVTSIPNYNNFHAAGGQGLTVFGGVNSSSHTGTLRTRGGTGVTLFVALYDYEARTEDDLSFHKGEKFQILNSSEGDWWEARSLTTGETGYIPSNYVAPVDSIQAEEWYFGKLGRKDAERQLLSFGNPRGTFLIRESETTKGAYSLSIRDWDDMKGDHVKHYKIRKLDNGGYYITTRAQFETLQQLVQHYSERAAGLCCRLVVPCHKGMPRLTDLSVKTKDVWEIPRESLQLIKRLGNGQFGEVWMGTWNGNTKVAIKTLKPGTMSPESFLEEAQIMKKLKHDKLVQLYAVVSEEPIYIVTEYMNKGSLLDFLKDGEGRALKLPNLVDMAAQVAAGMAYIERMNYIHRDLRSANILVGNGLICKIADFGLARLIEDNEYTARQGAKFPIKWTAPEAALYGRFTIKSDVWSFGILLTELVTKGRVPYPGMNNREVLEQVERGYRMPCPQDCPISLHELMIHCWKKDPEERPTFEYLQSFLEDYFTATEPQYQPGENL
Sequence of Phosphatidylinositol 4,5-bisphosphate 3-kinase catalytic subunit gamma isoform (Homo sapiens) (P48736 whole entry, looked up, canonical isoform): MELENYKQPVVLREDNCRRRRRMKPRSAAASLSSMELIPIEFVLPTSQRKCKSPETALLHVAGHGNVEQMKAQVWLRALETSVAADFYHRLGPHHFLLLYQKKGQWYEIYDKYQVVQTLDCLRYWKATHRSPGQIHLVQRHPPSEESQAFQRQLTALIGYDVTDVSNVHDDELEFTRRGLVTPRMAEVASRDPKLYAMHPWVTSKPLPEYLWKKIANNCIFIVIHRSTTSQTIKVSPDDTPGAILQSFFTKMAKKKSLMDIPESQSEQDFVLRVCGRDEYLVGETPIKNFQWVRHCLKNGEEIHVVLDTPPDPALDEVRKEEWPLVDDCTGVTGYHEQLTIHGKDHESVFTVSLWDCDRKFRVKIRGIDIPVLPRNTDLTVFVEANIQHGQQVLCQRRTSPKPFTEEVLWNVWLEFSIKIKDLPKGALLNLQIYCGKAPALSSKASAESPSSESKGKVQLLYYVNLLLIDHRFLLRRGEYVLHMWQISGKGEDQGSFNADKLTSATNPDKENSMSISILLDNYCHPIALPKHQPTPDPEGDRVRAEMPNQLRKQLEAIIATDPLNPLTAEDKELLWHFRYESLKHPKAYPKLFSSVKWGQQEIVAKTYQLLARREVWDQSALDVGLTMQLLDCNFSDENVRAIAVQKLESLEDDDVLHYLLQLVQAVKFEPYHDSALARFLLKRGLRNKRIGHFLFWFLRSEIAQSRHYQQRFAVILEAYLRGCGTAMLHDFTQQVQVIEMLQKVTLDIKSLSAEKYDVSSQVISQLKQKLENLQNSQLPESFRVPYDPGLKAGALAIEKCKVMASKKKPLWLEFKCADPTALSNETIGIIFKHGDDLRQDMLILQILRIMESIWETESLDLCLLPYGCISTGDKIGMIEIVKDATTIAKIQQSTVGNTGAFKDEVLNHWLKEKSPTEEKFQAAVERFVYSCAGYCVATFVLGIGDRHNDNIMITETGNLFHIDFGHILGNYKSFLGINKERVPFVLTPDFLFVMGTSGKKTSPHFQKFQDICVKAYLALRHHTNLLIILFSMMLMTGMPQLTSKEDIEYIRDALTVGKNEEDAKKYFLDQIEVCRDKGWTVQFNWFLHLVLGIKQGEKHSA
Sequence of Sphingosine kinase 2 (Homo sapiens) (Q9NRA0 whole entry): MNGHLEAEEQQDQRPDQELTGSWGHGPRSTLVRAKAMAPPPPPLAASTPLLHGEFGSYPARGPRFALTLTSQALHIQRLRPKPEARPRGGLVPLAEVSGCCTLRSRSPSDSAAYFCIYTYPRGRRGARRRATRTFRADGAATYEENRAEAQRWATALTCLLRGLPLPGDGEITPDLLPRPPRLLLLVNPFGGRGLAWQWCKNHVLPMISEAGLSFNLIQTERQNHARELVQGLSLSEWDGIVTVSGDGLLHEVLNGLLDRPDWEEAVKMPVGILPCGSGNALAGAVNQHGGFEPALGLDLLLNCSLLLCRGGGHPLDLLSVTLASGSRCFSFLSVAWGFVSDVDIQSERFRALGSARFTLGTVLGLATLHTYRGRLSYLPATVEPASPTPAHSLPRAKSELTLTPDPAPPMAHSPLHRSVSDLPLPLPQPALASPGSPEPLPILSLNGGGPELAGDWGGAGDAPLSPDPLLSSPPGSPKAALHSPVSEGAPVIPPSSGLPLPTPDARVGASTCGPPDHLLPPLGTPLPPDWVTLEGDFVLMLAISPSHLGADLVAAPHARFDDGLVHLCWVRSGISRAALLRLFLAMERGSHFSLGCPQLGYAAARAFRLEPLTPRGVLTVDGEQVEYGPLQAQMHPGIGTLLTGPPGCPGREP
Sequence of 5-hydroxytryptamine receptor 1B (Rattus norvegicus) (P28564 whole entry): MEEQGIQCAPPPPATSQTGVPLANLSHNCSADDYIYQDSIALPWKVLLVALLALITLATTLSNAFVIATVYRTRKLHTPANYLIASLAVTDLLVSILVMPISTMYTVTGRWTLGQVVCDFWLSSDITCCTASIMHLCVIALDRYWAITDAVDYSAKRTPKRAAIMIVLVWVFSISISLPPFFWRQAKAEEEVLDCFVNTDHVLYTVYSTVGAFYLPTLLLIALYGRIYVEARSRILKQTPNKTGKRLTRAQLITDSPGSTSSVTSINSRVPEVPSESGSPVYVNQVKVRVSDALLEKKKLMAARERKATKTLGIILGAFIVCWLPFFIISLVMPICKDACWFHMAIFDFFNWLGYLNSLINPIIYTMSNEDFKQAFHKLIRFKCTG
Sequence of Neuropeptide Y receptor type 1 (Homo sapiens) (P25929 whole entry): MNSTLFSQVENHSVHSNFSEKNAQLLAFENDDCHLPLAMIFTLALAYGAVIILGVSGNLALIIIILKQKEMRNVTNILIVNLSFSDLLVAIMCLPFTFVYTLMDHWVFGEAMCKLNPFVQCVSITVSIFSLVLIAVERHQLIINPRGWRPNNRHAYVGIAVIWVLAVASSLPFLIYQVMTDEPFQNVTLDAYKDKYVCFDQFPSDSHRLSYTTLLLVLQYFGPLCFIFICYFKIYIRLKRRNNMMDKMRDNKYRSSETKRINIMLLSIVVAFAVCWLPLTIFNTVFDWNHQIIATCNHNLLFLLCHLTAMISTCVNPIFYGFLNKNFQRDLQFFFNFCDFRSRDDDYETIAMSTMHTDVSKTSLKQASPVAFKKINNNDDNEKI

CN(C)C(=O)Cn1cc(-c2nc([C@@](C)(c3ccc(-c4cnc(N)nc4)cc3)C3CC3)no2)cn1 [BI 665915]
inactive: [1] 98% | [2] 102% | [3] 97% | [4] 141% | [5] 89% | [6] 104% | [7] 97% | [8] 96.5% | [9] 99% | [10] 96% | [11] 104% | [12] 93% | [13] 99%

From ChEMBL document CHEMBL4507276 (2021)
